# According to patent publication US20060073496A1, “Methods of identifying patients at risk of developing encephalitis following immunotherapy for Alzheimer's disease” (priority 2004, published 2006):
# Values joined by “and” are separate entries in the source; they are usually repeats but may differ in a detail not shown here. Identical values can stand only once. “Also recorded” adds a separate entry of the source.
# What was measured:
# PDAPP transgenic mouse = PDAPP transgenic mouse efficacy studies (titer needed to lessen neuropathological progression); format: in vivo
# Source text: At present, the anti-AN1792 titer necessary to achieve a beneficial therapeutic effect in human AD is unknown. Whereas the PDAPP (platelet-derived growth factor-driven amyloid precursor protein) transgenic mouse develops several AD-like neuropathologies, the progression of pathology in this model may very well take a more aggressive course than in human AD, as the changes occur in months and the expression levels APP/Aβ are several fold higher than in nontransgenic species.
# [1] = Phase I human trials of AN1792 (safety, tolerability, antibody responsiveness); format: in vivo; details: Phase I study
# Source text: The U.K. trial enrolled about 80 patients and the U.S. trial enrolled about 24 patients with mild to moderate AD for the Phase I trials. […] Four of the participants developed signs of meningoencephalitis at an early phase of the clinical trial, and the trial was suspended. […] At the time the treatments were discontinued, the maximum number of immunization received was three (by 24 patients), with the majority of patients receiving two immunizations (274 patients) and two patients receiving one immunization. Ultimately, meningoencephalitis was reported in 18 of 300 immunized patients (Orgogozo (2003) supra).
# Predictors of response were sought because the incidence of antibody responsiveness in the Phase I study was relatively low (48%), an incidence that would have more than doubled the number of patients required in a Phase II evaluation of efficacy (as measured by cognitive function) associated with anti-AN1792 antibody response. […] Consequently, blood samples were obtained from 123 treated U.S. patients (five of which developed meningoencephalitis) and 30 patients in the placebo group. Simultaneous analysis of the expression levels of approximately 22,000 sequences in each preimmune blood sample obtained from all consenting subjects was performed using the Affymetrix U133A GeneChip®. […]
# [2] = Phase IIa placebo-controlled trial of AN1792 with QS-21 adjuvant: meningoencephalitis and follow-up; format: in vivo, human; details: for Meningoencephalitis patients: number of samples in pharmacogenomic study
# Source text: The U.K. trial enrolled about 80 patients and the U.S. trial enrolled about 24 patients with mild to moderate AD for the Phase I trials.
# Antibody responders were compared to placebo controls. […] Whole-trial analysis remains ongoing (Gilman, supra).
# A total of 372 patients, 172 from the U.S. and 200 from the E.U., were enrolled in the clinical trial. […] Consent was obtained after approval by local institutional review boards.
# AN1792 = test: Postimmunization maximum anti-AN1792 IgG and IgM titer / response group of treated patients; format: in vivo, human
# Source text: Relevant clinical data received from StatProbe, Inc. (Ann Arbor, Mich.) (pertaining to treatment group, maximum IgG titer for all visits, maximum IgM titer for all visits, ApoE4 type, and encephalitis status), along with demographic data and treatment group, were merged with the gene expression data by donor identification number (the randomization number that was assigned to each patient in the study).
# The pharmacogenomic supplemental statistical analysis plan of this Example 1 defines IgG responders as having a maximum titer≧2200 at any time point. The maximum titer of partial IgG responders was >200<2200, and of nonresponders was ≦200. Patients with an IgM titer>100 at any time point are defined as IgM responders.
# (Data from patients with maximum titers between 200 and 2200 were not used in the identification of statistically significant associations, but were analyzed once the statistical programs had identified genes of interest.)
# Relevant clinical data pertaining to treatment group, maximum IgG titer for all visits, maximum IgM titer for all visits, encephalitis status, and demographic data were received from StatProbe, Inc. (Ann Arbor, Mich.). The clinical data were merged with the gene expression data by donor identification number.
# Subjects were assigned to response groups based on postimmunization maximum titer during follow-up. For both IgM and IgG the response groups were: 1) nonresponders, (titer<200); 2) partial responders (200≦titer<2,200); and 3) responders (titer≧2200).
# PBMCs = test: Gene expression frequency (Affymetrix U133A) in PBMCs cultured overnight with AN1792 and immune adjuvant cocktail; association with encephalitis, IgG, IgM response, ApoE4 by ANOVA and GeneCluster; ratio to control culture; format: cell-based, human; details: 13 genes of Table 17, PBMCs cultured overnight, AN1792 10 μg/ml
# Source text: Consent to the pharmacogenomic study was optional and obtained after approval by local institutional review boards in the U.S. (E.U. patients were not included in the pharmacogenomic study). Blood was collected from patients in the U.S. at the screening visit and was shipped overnight at room temperature to the Pharmacogenomic Laboratory in Andover, Mass. For each sample, the peripheral blood mononuclear cell (PBMC) fraction was purified by CPT fractionation, as described below, and 2×10^6 of these cells (the baseline sample, i.e., the first daughter sample for baseline measurements) were snap frozen; these represent cells that were not subject to in vitro culture (see. Example 1.1.3.1). The remaining cells were divided into four equal aliquots and cultured in vitro overnight in conditions described below. Cells were then harvested and snap frozen. […] The hypothesis behind this reasoning was that immunotherapeutic responsiveness may reflect a state of “preexisting readiness” to respond to AN1792, and this state may be reflected in the gene expression profile of PBMCs prior to immunotherapy. Accordingly, both AN1792-stimulated and control cultures were set up for each sample. Total RNA was purified from each sample, and RNA expression levels of each of 22,000 sequences were assayed, as described below. […]
# [3] = system: transgenic mouse models of cognitive impairment and amyloid plaque-associated CNS pathology; details: cited from earlier work
# [4] = cited from earlier work
# [5] = cited from earlier work; remark: listed apart in the source
# [6] = rabbit, single IM injection, tritium-labeled QS-21; cited from earlier work
# [7] = system: B and T cell effector function; details: QS-21 adjuvanted immunotherapeutics in mice, rabbits and monkeys; cited from earlier work
# [8] = cited from earlier work; remark: listed apart in the source
# [9] = individual AN1792-treated patients with r^2 outlier samples (33, 22, 316, 765)
# [10] = individual treated patients with post-CPT neutrophils >20%, one line per patient (17, 23, 36, 44, 271, 756), listed as Immunotherapy
# [11] = number of samples in pharmacogenomic study, Female, of 57 treated
# [12] = number of samples in pharmacogenomic study, Male, of 66 treated
# [13] = number of samples in pharmacogenomic study, Total, of 123 treated
# [14] = immunization with AN1792, transgenic mice
substance,measurement,setting,value
"AN1792: a peptide immunogen consisting of Aβ1-42, the section of amyloid recognized as a major component of AD-related plaques",lowest titers that resulted in lessening of neuropathological progression,PDAPP transgenic mouse,"1-2,000"
same,incidence of antibody responsiveness,[1],48%
same,number of patients who developed meningoencephalitis,[2]; E.U. patients,12
same,number of patients who developed meningoencephalitis,[2]; U.S. patients,6
same,Meningoencephalitis patients,[2]; Female,5
same,Meningoencephalitis patients,[2]; Total,5
same,IgG response group,AN1792; [9],Nonresponder (of nonresponders was ≦200); also recorded: IgG responder (IgG responders as having a maximum titer≧2200 at any time point)
same,IgM response group,AN1792; [9],IgM responder (maximum IgM titer>100 (responders)); also recorded: Nonresponder (maximum IgM titer<100 (nonresponders))
same,Maximum IgG Titer,AN1792; [10],50 (3×) and 4111 and 126 and 172
same,Maximum IgM Titer,AN1792; [10],13275 and 957 and 28554
same,Treated IgG nonresponders,AN1792; [11],28
same,Treated IgG partial responders,AN1792; [11],16
same,Treated IgG responders,AN1792; [11],13
same,Treated IgM nonresponders,AN1792; [11],16
same,Treated IgM partial responders,AN1792; [11],21
same,Treated IgG nonresponders,AN1792; [12],42
same,Treated IgG partial responders,AN1792; [12],12
same,Treated IgG responders,AN1792; [12],12
same,Treated IgM nonresponders,AN1792; [12],28
same,Treated IgM partial responders,AN1792; [12],18
same,Treated IgG nonresponders,AN1792; [13],70
same,Treated IgG partial responders,AN1792; [13],28
same,Treated IgM nonresponders,AN1792; [13],44
same,Treated IgM partial responders,AN1792; [13],39
same,Treated IgM responders,AN1792; [13],40
same,"incidence of responsiveness (IgG titer>200), patients of treated patients","AN1792; treated U.S. patients of the pharmacogenomic study, Example 2",53 of 123
same,effect of AN1792 stimulation on gene expression frequency (AN1792-stimulated versus control culture),PBMCs,decrease in gene expression frequency
same,cognitive function,[3]; [14],improved cognitive function
same,"development of AD-like amyloid plaques, neuritic dystrophy, and gliosis",[3]; [14],"inhibited the development of AD-like amyloid plaques, neuritic dystrophy, and gliosis"
same,performance in memory tests,[3]; mice treated with AN1792 versus placebo,improved performance in memory tests
same,development of amyloid antibodies,"[4]; Phase I trials, mild to moderate AD",a portion of the participants developed amyloid antibodies
same,tolerability in human recipients,[4]; in vivo,well tolerated
same,CSF tau levels and battery of neuropsychological tests,"[5]; antibody responders compared to placebo controls, follow-up",gave results favoring patients with a positive IgG titer
same,"meningoencephalitis reported, patients of immunized patients",[5]; in vivo,18 of 300
same,β-amyloid plaques in brain at autopsy,[5]; one participant who died of causes unrelated to treatment,significant areas of the brain lacked the β-amyloid plaques
QS-21,distribution,[6],highly concentrated in the lymph nodes draining the injection area
same,excretion,[6],Excretion occurs primarily through the kidneys
same,effect on immune effector function,[7],improvement in B and T cell effector function
same,white blood cell counts and creatinine kinase,[8]; rabbit toxicity studies,Slight alterations in white blood cell counts (leukocytosis and leukopenia) and creatinine kinase
same,organ toxicity,"[8]; rabbit, single or multiple injections, QS-21 alone or combined with antigens",no significant organ toxicity
